Experimental data reported in ChEMBL document CHEMBL3885881, “DrugMatrix”.

Species: Rattus norvegicus
Test: DrugMatrix - Regimen: Daily Repeat
Assay type: toxicity, organism-based, Sprague-Dawley
Design: regimen Daily Repeat, gender Male, age 6-8 weeks
Conditions: in vivo, po, 1200 mg/kg, route oral GAVAGE, dose level High, vehicle 100 % WATER; for ABSOLUTE BASOPHIL / ABSOLUTE EOSINOPHIL / ABSOLUTE LYMPHOCYTE / ABSOLUTE MONOCYTE / ABSOLUTE SEGMENTED NEUTROPHIL / BASOPHIL / EOSINOPHIL / ERYTHROCYTE COUNT / HEMATOCRIT / HEMOGLOBIN / LEUKOCYTE COUNT / LYMPHOCYTE / MEAN CORPUSCULAR HEMOGLOBIN / MEAN CORPUSCULAR HEMOGLOBIN CONCENTRATION / MEAN CORPUSCULAR VOLUME / MONOCYTE / NEUTROPHIL / NUCLEATED RED BLOOD CELLS / PLATELET COUNT: tissue Blood; for ALANINE AMINOTRANSFERASE / ALBUMIN / ALKALINE PHOSPHATASE / ASPARTATE AMINOTRANSFERASE / BLOOD UREA NITROGEN / CARBON DIOXIDE / CHLORIDE / CHOLESTEROL / CREATINE PHOSPHOKINASE / CREATININE / GLUCOSE / LACTATE DEHYDROGENASE / LIPASE / PHOSPHORUS / POTASSIUM / SODIUM / TOTAL BILIRUBIN / TOTAL PROTEIN / URIC ACID: tissue Plasma

For `CCC1(C)CC(=O)NC1=O` (stereo unspecified) [ETHOSUXIMIDE], which “ABSOLUTE BASOPHIL” value (72 h, time 3 day) is on record?
Its value is 0 CELLS/uL.

What about the “ABSOLUTE EOSINOPHIL” value (72 h, time 3 day) of the same molecule?
Its value is 0 CELLS/uL.

And the “ABSOLUTE LYMPHOCYTE” value (72 h, time 3 day)?
The value was 11632.67 CELLS/uL.

What about the “ABSOLUTE MONOCYTE” value (72 h, time 3 day) of the same molecule?
The value was 44.67 CELLS/uL.

And the “ABSOLUTE SEGMENTED NEUTROPHIL” value (72 h, time 3 day)?
The value was 722.67 CELLS/uL.

And the BASOPHIL (72 h, time 3 day)?
The BASOPHIL was 0%.

And the EOSINOPHIL (72 h, time 3 day)?
The EOSINOPHIL was 0%.

And the “ERYTHROCYTE COUNT” value (72 h, time 3 day)?
Its value is 5.96 x10E6/uL.

What about the HEMATOCRIT (72 h, time 3 day) of the same molecule?
The HEMATOCRIT was 38.63%.

And the HEMOGLOBIN (72 h, time 3 day)?
The HEMOGLOBIN was 15.43 G/DL.

What about the “LEUKOCYTE COUNT” value (72 h, time 3 day) of the same molecule?
The value was 12.4 x10E3/uL.

And the LYMPHOCYTE (72 h, time 3 day)?
The LYMPHOCYTE was 94%.

What about the “MEAN CORPUSCULAR HEMOGLOBIN” value (72 h, time 3 day) of the same molecule?
Its value is 26 pg.

And the “MEAN CORPUSCULAR HEMOGLOBIN CONCENTRATION” value (72 h, time 3 day)?
Its value is 40 G/DL.

And the “MEAN CORPUSCULAR VOLUME” value (72 h, time 3 day)?
Its value is 65 fL.

And the MONOCYTE (72 h, time 3 day)?
The MONOCYTE was 0.33%.

And the NEUTROPHIL (72 h, time 3 day)?
Its NEUTROPHIL is 5.67%.

What about the “NUCLEATED RED BLOOD CELLS” value (72 h, time 3 day) of the same molecule?
Its value is 0 /100WBC.

And the “PLATELET COUNT” value (72 h, time 3 day)?
The value was 1151 x10E3/uL.

And the “ALANINE AMINOTRANSFERASE” value (72 h, time 3 day)?
Its value is 70.67 u/L.

What about the ALBUMIN (72 h, time 3 day) of the same molecule?
Its ALBUMIN is 4.4 G/DL.

And the “ALKALINE PHOSPHATASE” value (72 h, time 3 day)?
The value was 269.67 u/L.

What about the “ASPARTATE AMINOTRANSFERASE” value (72 h, time 3 day) of the same molecule?
The value was 95 u/L.

And the “BLOOD UREA NITROGEN” value (72 h, time 3 day)?
The value was 16.33 mg/dL.

And the “CARBON DIOXIDE” value (72 h, time 3 day)?
Its value is 28.67 mmol/L.

And the CHLORIDE (72 h, time 3 day)?
Its CHLORIDE is 97 MEQ/L.

And the CHOLESTEROL (72 h, time 3 day)?
The CHOLESTEROL was 100.67 mg/dL.

What about the “CREATINE PHOSPHOKINASE” value (72 h, time 3 day) of the same molecule?
Its value is 183.67 u/L.

What about the CREATININE (72 h, time 3 day) of the same molecule?
Its CREATININE is 0.14 mg/dL.

What about the GLUCOSE (72 h, time 3 day) of the same molecule?
Its GLUCOSE is 133 mg/dL.

And the “LACTATE DEHYDROGENASE” value (72 h, time 3 day)?
The value was 123 u/L.

What about the LIPASE (72 h, time 3 day) of the same molecule?
The LIPASE was 10.67 u/L.

And the PHOSPHORUS (72 h, time 3 day)?
The PHOSPHORUS was 12.53 mg/dL.

And the POTASSIUM (72 h, time 3 day)?
Its POTASSIUM is 7.49 MEQ/L.

And the SODIUM (72 h, time 3 day)?
Its SODIUM is 140.33 MEQ/L.

What about the “TOTAL BILIRUBIN” value (72 h, time 3 day) of the same molecule?
Its value is 0.2 mg/dL.

What about the “TOTAL PROTEIN” value (72 h, time 3 day) of the same molecule?
Its value is 5.97 G/DL.

What about the “URIC ACID” value (72 h, time 3 day) of the same molecule?
The value was 1.9 mg/dL.

And the “ABSOLUTE BASOPHIL” value (120 h, time 5 day)?
The value was 0 CELLS/uL.

What about the “ABSOLUTE EOSINOPHIL” value (120 h, time 5 day) of the same molecule?
Its value is 57.67 CELLS/uL.

And the “ABSOLUTE LYMPHOCYTE” value (120 h, time 5 day)?
Its value is 11720.67 CELLS/uL.

And the “ABSOLUTE MONOCYTE” value (120 h, time 5 day)?
The value was 238.33 CELLS/uL.

What about the “ABSOLUTE SEGMENTED NEUTROPHIL” value (120 h, time 5 day) of the same molecule?
Its value is 2116.67 CELLS/uL.

What about the BASOPHIL (120 h, time 5 day) of the same molecule?
The BASOPHIL was 0%.

What about the EOSINOPHIL (120 h, time 5 day) of the same molecule?
The EOSINOPHIL was 0.33%.

And the “ERYTHROCYTE COUNT” value (120 h, time 5 day)?
The value was 6.03 x10E6/uL.

And the HEMATOCRIT (120 h, time 5 day)?
Its HEMATOCRIT is 37.47%.

What about the HEMOGLOBIN (120 h, time 5 day) of the same molecule?
The HEMOGLOBIN was 14.97 G/DL.

And the “LEUKOCYTE COUNT” value (120 h, time 5 day)?
Its value is 14.13 x10E3/uL.

What about the LYMPHOCYTE (120 h, time 5 day) of the same molecule?
The LYMPHOCYTE was 83%.

And the “MEAN CORPUSCULAR HEMOGLOBIN” value (120 h, time 5 day)?
Its value is 24.8 pg.

And the “MEAN CORPUSCULAR HEMOGLOBIN CONCENTRATION” value (120 h, time 5 day)?
Its value is 39.97 G/DL.

And the “MEAN CORPUSCULAR VOLUME” value (120 h, time 5 day)?
Its value is 62.07 fL.

What about the MONOCYTE (120 h, time 5 day) of the same molecule?
Its MONOCYTE is 1.67%.

And the NEUTROPHIL (120 h, time 5 day)?
The NEUTROPHIL was 15%.

What about the “NUCLEATED RED BLOOD CELLS” value (120 h, time 5 day) of the same molecule?
The value was 0 /100WBC.

What about the “PLATELET COUNT” value (120 h, time 5 day) of the same molecule?
The value was 1343 x10E3/uL.

And the “ALANINE AMINOTRANSFERASE” value (120 h, time 5 day)?
The value was 98.67 u/L.

And the ALBUMIN (120 h, time 5 day)?
The ALBUMIN was 4.7 G/DL.

What about the “ALKALINE PHOSPHATASE” value (120 h, time 5 day) of the same molecule?
The value was 209.33 u/L.

What about the “ASPARTATE AMINOTRANSFERASE” value (120 h, time 5 day) of the same molecule?
Its value is 133.67 u/L.

And the “BLOOD UREA NITROGEN” value (120 h, time 5 day)?
The value was 15 mg/dL.

What about the “CARBON DIOXIDE” value (120 h, time 5 day) of the same molecule?
The value was 25.67 mmol/L.

And the CHLORIDE (120 h, time 5 day)?
The CHLORIDE was 96.67 MEQ/L.

What about the CHOLESTEROL (120 h, time 5 day) of the same molecule?
Its CHOLESTEROL is 108 mg/dL.

And the “CREATINE PHOSPHOKINASE” value (120 h, time 5 day)?
Its value is 425.33 u/L.

What about the CREATININE (120 h, time 5 day) of the same molecule?
Its CREATININE is 0.16 mg/dL.

And the GLUCOSE (120 h, time 5 day)?
The GLUCOSE was 121 mg/dL.

What about the “LACTATE DEHYDROGENASE” value (120 h, time 5 day) of the same molecule?
Its value is 480.67 u/L.

What about the LIPASE (120 h, time 5 day) of the same molecule?
The LIPASE was 10.67 u/L.

What about the PHOSPHORUS (120 h, time 5 day) of the same molecule?
Its PHOSPHORUS is 11.4 mg/dL.

And the POTASSIUM (120 h, time 5 day)?
Its POTASSIUM is 6.59 MEQ/L.

What about the SODIUM (120 h, time 5 day) of the same molecule?
Its SODIUM is 141.93 MEQ/L.

What about the “TOTAL BILIRUBIN” value (120 h, time 5 day) of the same molecule?
The value was 0.13 mg/dL.

What about the “TOTAL PROTEIN” value (120 h, time 5 day) of the same molecule?
Its value is 6.37 G/DL.

What about the “URIC ACID” value (120 h, time 5 day) of the same molecule?
Its value is 1.63 mg/dL.
